Experimental data as given in ChEMBL document CHEMBL5042512 (Eur J Med Chem, 2022).

Key:
Assay type in all cases: functional, cell-based
[1] = tested on: MGC-803; experiment: Antiproliferative activity against human MGC-803 cells assessed as cell growth inhibition measured after 48 hrs by CCK8 assay; conditions: MGC-803, 48 h
[2] = tested on: HCT-116; experiment: Antiproliferative activity against human HCT-116 cells assessed as cell growth inhibition measured after 48 hrs by CCK8 assay; conditions: HCT-116, 48 h
[3] = tested on: KYSE-450; experiment: Antiproliferative activity against human KYSE-450 cells assessed as cell growth inhibition measured after 48 hrs by CCK8 assay; conditions: KYSE-450, 48 h

| Structure (SMILES) | IC50 [1] [µM] | IC50 [2] [µM] | IC50 [3] [µM] |
| --- | --- | --- | --- |
| COc1ccc(CN(C(=O)CSC(=S)N2CCN(C(=O)OC(C)(C)C)CC2)c2cc(OC)c(OC)c(OC)c2)cc1 | 0.31 | 0.62 | 0.25 |
| COc1ccc(CN(C(=O)CSC(=S)N2CCc3ccccc3C2)c2cc(OC)c(OC)c(OC)c2)cc1 | 5.94 | 15.9 | > 20 |
| CCN1CCN(C(=S)SCC(=O)N(Cc2ccc(OC)cc2)c2cc(OC)c(OC)c(OC)c2)CC1 | 9.89 | 7.7 | 3.07 |
| COc1ccc(CN(C(=O)CSC(=S)N2CCCc3cc(OC)ccc32)c2cc(OC)c(OC)c(OC)c2)cc1 | 8.21 | > 20 | 5.53 |
| COc1ccc(CN(C(=O)CSC(=S)N2CCN(C(=O)OC(C)(C)C)CC2)c2cc(OC)c(OC)c(OC)c2)cc1C | > 20 | > 20 | > 20 |
| COc1ccc(CN(C(=O)CSC(=S)N2CCN(C(=O)OC(C)(C)C)CC2)c2cc(OC)c(OC)c(OC)c2)cc1[N+](=O)[O-] | 0.88 | 0.98 | 0.81 |
| COc1ccc(CN(C(=O)CSc2nc3ccccc3o2)c2cc(OC)c(OC)c(OC)c2)cc1 |  | 3.28 | 0.84 |
| COc1ccc(CN(C(=O)CSC(=S)N2CCN(C(=O)OC(C)(C)C)CC2)c2cc(OC)c(OC)c(OC)c2)cc1OC | > 20 | > 20 | > 20 |
| COc1ccc(CN(C(=O)CSC(=S)N2CCCc3cc(C)ccc32)c2cc(OC)c(OC)c(OC)c2)cc1 | 6.49 | 5.23 | 5.21 |
| COc1ccc(CN(C(=O)CSC(=S)N2CCN(C(=O)OC(C)(C)C)CC2)c2ccc(C)cc2)cc1 | > 20 | > 20 | > 20 |
| COc1ccc(CN(C(=O)CSC(=S)N2CCN(C(=O)OC(C)(C)C)CC2)c2cc(OC)c(OC)c(OC)c2)cc1F | 4.87 | 8.21 | 2.41 |
| COc1ccc(CN(C(=O)CSC(=S)N2CCN(C(=O)OC(C)(C)C)CC2)c2cc(OC)c(OC)c(OC)c2)cc1N=[N+]=[N-] | 0.81 | 0.78 | 0.84 |
| COc1ccc(CN(C(=O)CSC(=S)N2CCN(Cc3ccc(C(C)(C)C)cc3)CC2)c2cc(OC)c(OC)c(OC)c2)cc1 | 5.39 | 6.89 | 2.14 |
| COc1cc2c(c(OC)c1OC)-c1ccc(OC)c(=O)cc1[C@@H](NC(C)=O)CC2 [COLCHICINE] | 0.09 |  | 0.22 |
| CCN1CCN(CC(=O)N(Cc2ccc(OC)cc2)c2cc(OC)c(OC)c(OC)c2)CC1 | > 20 | > 20 | 16.1 |
| COc1ccc(CN(C(=O)CSC(=S)N2CCN(C(C)=O)CC2)c2cc(OC)c(OC)c(OC)c2)cc1O | 0.31 | 0.78 | 0.21 |
| COc1ccc(CN(C(=O)CSC(=S)N2CCN(C(=O)OC(C)(C)C)CC2)c2ccc(OC)cc2)cc1 | > 20 | > 20 | > 20 |

The next lines start with results.

| IC50 [1] [µM] | IC50 [2] [µM] | Structure (SMILES) | IC50 [3] [µM] |
| --- | --- | --- | --- |
| > 20 | > 20 | COc1ccc(CN(C(=O)CSC(=S)N2CCN(C(=O)OC(C)(C)C)CC2)c2ccccc2)cc1 | > 20 |
| 12.9 | 8.49 | COc1cc(N(Cc2ccc(Cl)cc2)C(=O)CSC(=S)N2CCN(C(=O)OC(C)(C)C)CC2)cc(OC)c1OC | 11.9 |
| 0.38 | 0.53 | CCN1CCN(C(=S)SCC(=O)N(Cc2ccc(OC)c(O)c2)c2cc(OC)c(OC)c(OC)c2)CC1 | 0.32 |
| 12.4 | 11.4 | COc1cc(N(Cc2ccc(Br)cc2)C(=O)CSC(=S)N2CCN(C(=O)OC(C)(C)C)CC2)cc(OC)c1OC | 10.7 |
| 11.7 | 9.81 | COc1ccc(CN(C(=O)CSC(=S)N2CCc3cc(OC)ccc32)c2cc(OC)c(OC)c(OC)c2)cc1 | 10.2 |
| > 20 | 16 | COc1cc(NC(=O)CSC(=S)N2CCN(C(=O)OC(C)(C)C)CC2)c(Cc2ccccc2)c(OC)c1OC | > 20 |
| 16.9 | > 20 | COc1ccc(CN(C(=O)CN2CCOCC2)c2cc(OC)c(OC)c(OC)c2)cc1 | 18.9 |
| 3.71 | 9.71 | COc1ccc(CN(C(=O)CSC(=S)N2CCN(C(=O)OC(C)(C)C)CC2)c2cc(OC)c(OC)c(OC)c2)cc1Br | 1.85 |
| 9.5 | 18.1 | COc1ccc(CN(C(=O)CN2CCN(C(=O)OC(C)(C)C)CC2)c2cc(OC)c(OC)c(OC)c2)cc1 | 8.17 |
| 1.28 | 2.64 | COc1ccc(CN(C(=O)CSC(=S)N2CCN(C)CC2)c2cc(OC)c(OC)c(OC)c2)cc1 | 1.25 |
| > 20 | > 20 | COc1ccc(CN(C(=O)CSC(=S)N2CCN(C(=O)OC(C)(C)C)CC2)c2ccc(Br)cc2)cc1 | > 20 |
| > 20 | 4.97 | COc1ccc(CN(C(=O)CSC(=S)N2CCCC2)c2cc(OC)c(OC)c(OC)c2)cc1 | 13.8 |
| > 20 | 8.06 | COc1ccc(CN(C(=O)CSC(=S)N2CCc3cc(Br)ccc32)c2cc(OC)c(OC)c(OC)c2)cc1 | > 20 |
| 16.7 | > 20 | COc1cc(N(Cc2ccc(C)cc2)C(=O)CSC(=S)N2CCN(C(=O)OC(C)(C)C)CC2)cc(OC)c1OC | > 20 |
| 0.48 | 1.37 | COc1ccc(CN(C(=O)CSC(=S)N2CCN(C(C)=O)CC2)c2cc(OC)c(OC)c(OC)c2)cc1 | 0.37 |
| 8.41 | 7.71 | COc1ccc(CN(C(=O)CSC(=S)N2CCc3ccccc32)c2cc(OC)c(OC)c(OC)c2)cc1 | 6.94 |
| > 20 | > 20 | COc1ccc(CN(C(=O)CSC(=S)N2CCN(C(=O)OC(C)(C)C)CC2)c2ccc(Cl)cc2)cc1 | > 20 |
| 2.37 | 4.13 | COc1ccc(CN(C(=O)CSC(=S)N2CCOCC2)c2cc(OC)c(OC)c(OC)c2)cc1 | 7.22 |
| 0.86 | 0.81 | COc1ccc(CN(C(=O)CSC(=S)N2CCN(C)CC2)c2cc(OC)c(OC)c(OC)c2)cc1O | 0.76 |
| 12.8 | > 20 | COc1ccc(CN(C(=O)CN2CCN(C(C)=O)CC2)c2cc(OC)c(OC)c(OC)c2)cc1 | 10.8 |
| 0.184 | 0.352 | COc1ccc(CN(C(=O)CSC(=S)N2CCN(C(=O)OC(C)(C)C)CC2)c2cc(OC)c(OC)c(OC)c2)cc1N | 0.208 |
